pIC50: −log10 of the molar value. Activity calls are given as the source filed them. No cut-off for these calls is given here.
Legend:
[1] = target: T1, Acetylcholinesterase (Rattus norvegicus, UniProt P37136); experiment: Inhibition of AChE from rat cortex homogenate using acetylthiocholine iodide as substrate after 15 mins by Ellman method
T1 sequence (P37136 whole entry): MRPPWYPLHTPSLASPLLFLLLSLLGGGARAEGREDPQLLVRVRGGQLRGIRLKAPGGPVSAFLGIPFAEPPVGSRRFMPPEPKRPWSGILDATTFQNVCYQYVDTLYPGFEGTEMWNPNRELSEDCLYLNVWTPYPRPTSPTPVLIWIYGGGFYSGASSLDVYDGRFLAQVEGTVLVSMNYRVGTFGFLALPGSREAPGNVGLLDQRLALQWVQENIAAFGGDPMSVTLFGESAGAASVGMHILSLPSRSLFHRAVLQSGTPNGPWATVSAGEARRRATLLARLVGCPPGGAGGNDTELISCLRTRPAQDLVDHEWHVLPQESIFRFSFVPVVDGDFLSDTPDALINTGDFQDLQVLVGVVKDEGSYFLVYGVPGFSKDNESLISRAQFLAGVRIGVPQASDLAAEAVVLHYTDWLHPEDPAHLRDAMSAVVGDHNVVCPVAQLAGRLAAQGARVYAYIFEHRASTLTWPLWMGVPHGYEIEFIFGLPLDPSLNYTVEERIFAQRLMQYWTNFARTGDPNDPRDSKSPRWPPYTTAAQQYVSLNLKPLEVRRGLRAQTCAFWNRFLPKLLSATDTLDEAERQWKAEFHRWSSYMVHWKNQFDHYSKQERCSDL

[2] = Inhibition of rat serum BuChE using butyrylthiocholine iodide as substrate after 15 mins by Ellman method; type: cell-free
[3] = target: Acetylcholinesterase (Electrophorus electricus, UniProt O42275); experiment: Inhibition of electric eel AChE using acetylthiocholine iodide as substrate after 15 mins by Ellman method; conditions: for pIC50: read-out: IC50
Sequence of Acetylcholinesterase (Electrophorus electricus, UniProt O42275) (O42275 whole entry): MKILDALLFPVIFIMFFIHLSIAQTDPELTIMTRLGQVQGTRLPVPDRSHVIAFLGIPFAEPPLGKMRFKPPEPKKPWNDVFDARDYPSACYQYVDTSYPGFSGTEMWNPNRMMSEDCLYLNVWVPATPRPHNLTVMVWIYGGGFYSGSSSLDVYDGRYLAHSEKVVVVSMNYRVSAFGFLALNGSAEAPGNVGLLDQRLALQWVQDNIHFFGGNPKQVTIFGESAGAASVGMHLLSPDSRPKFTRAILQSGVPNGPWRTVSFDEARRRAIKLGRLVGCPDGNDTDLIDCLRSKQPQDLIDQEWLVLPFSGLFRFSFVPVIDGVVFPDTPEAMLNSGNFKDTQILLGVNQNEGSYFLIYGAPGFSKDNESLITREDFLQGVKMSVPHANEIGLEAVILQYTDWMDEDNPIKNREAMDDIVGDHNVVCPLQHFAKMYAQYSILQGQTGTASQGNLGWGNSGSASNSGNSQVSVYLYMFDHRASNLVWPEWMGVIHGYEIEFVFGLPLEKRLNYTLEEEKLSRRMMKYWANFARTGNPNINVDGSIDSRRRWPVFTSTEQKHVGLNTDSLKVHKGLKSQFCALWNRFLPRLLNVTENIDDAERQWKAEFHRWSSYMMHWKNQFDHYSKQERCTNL

[4] = species on record: Rattus norvegicus; experiment: Selectivity index, ratio of IC50 for rat serum BuChE to IC50 for AChE from rat cortex homogenate; type: cell-free
[5] = target: Acetylcholinesterase (Electrophorus electricus) (UniProt O42275); experiment: Mixed-type inhibition of electric eel AChE using acetylthiocholine iodide as substrate at 0.0625 to 0.25 uM after 15 mins by Lineweaver-Burk plot method
Sequence of Acetylcholinesterase (Electrophorus electricus) (O42275 24-633 limits assumed): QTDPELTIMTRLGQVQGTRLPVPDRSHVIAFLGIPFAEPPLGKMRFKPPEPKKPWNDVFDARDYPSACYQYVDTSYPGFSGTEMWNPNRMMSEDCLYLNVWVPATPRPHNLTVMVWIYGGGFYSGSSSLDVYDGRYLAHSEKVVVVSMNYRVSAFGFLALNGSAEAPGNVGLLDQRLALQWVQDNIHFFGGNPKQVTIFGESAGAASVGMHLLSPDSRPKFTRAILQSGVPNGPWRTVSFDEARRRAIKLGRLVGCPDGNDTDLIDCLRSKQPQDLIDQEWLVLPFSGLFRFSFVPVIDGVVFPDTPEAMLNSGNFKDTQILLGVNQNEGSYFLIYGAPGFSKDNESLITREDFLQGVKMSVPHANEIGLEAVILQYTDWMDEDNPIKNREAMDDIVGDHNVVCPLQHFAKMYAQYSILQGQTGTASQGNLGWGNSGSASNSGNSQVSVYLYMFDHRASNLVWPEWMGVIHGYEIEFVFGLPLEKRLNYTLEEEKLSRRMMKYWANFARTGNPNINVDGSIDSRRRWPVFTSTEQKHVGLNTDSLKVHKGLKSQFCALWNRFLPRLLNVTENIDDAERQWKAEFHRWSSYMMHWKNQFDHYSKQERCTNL

[6] = Antioxidant activity assessed as AAPH scavenging activity measured as trolox equivalent at 5 uM after 15 mins by ORAC-FL method relative to control; type: physicochemical; conditions: 0.25 h
[7] = Metal chelating activity of the compound assessed as formation of copper-compound complex in methanol solution at 37.5 uM after 30 mins by UV-vis spectrometry; type: physicochemical; conditions: 0.5 h
[8] = Metal chelating activity of the compound assessed as formation of iron-compound complex in methanol solution at 37.5 uM after 30 mins by UV-vis spectrometry; type: physicochemical; conditions: 0.5 h
[9] = Metal chelating activity of the compound assessed as formation of zinc-compound complex in methanol solution at 37.5 uM after 30 mins by UV-vis spectrometry; type: physicochemical; conditions: 0.5 h
[10] = Metal chelating activity of the compound assessed as formation of aluminium-compound complex in methanol solution at 37.5 uM after 30 mins by UV-vis spectrometry; type: physicochemical; conditions: 0.5 h
[11] = target: Amyloid-beta precursor protein (Homo sapiens) (UniProt P05067); experiment: Inhibition of self-mediated aggregation of amyloid beta (1-42) (unknown origin) at 25 uM after 24 hrs by thioflavin T fluorescence-based fluorimetric method
Sequence of Amyloid-beta precursor protein (Homo sapiens) (P05067 whole entry): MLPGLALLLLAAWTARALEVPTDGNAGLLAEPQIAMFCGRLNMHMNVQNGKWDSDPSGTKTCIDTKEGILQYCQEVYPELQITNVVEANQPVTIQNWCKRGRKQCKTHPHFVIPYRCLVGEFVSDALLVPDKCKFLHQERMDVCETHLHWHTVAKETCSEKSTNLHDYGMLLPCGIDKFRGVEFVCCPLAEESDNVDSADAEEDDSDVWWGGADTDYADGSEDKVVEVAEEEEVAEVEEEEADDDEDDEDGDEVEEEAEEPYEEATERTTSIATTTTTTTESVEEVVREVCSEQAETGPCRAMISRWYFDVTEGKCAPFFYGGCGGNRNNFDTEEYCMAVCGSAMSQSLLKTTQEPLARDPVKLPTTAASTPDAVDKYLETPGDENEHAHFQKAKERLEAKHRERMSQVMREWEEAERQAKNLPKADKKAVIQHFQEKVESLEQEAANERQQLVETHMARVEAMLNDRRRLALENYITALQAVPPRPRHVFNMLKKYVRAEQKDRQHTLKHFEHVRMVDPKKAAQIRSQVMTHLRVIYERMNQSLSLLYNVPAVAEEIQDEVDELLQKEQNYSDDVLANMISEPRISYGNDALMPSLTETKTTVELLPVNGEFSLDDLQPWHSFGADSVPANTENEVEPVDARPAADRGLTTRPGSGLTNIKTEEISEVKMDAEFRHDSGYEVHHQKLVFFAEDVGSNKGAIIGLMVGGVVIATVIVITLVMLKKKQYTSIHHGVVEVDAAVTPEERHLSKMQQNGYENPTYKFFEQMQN

[12] = target: Amyloid-beta precursor protein (Homo sapiens) (UniProt P05067); experiment: Inhibition of Cu2+-mediated aggregation of amyloid beta (1-42) (unknown origin) at 25 uM after 24 hrs by thioflavin T fluorescence-based fluorimetric method

SMILES | pIC50 [1] | pIC50 [2] | pIC50 [3] | Ratio IC50 [4] | inhibition [5] | fold change (FC) [6] | Activity [7] | Activity [8] | Activity [9] | Activity [10] | inhibition [11] [%] | inhibition [12] [%] | IC50 [3]
CCN(CCCCNC(=O)c1cc(=O)c2c(O)cccc2o1)Cc1ccccc1OC | 7.15 | 4.29 | 6.26 | 736 | Active | 0.83 | Active | Not Active | Not Active | Not Active | 59.2 | 48.3 | –
CCN(CCCNC(=O)c1cc(=O)c2c(O)cc(OC)cc2o1)Cc1ccccc1OC | 6.06 | 3.71 | 5.73 | 224 | – | 0.54 | – | – | – | – | 47.9 | 27.2 | –
CCN(CCCCNC(=O)c1cc(=O)c2c(O)cc(OC)cc2o1)Cc1ccccc1N(C)C | 6.51 | 4.13 | 6.04 | 239 | – | 0.97 | – | – | – | – | 25.6 | 20 | –
CN(C)c1cc(O)c2c(=O)cc(C(=O)O)oc2c1 | < 3.70 | < 3.70 | < 3.70 | – | – | 0.95 | – | – | – | – | – | – | –
COc1cc(O)c2c(=O)cc(C(=O)NCCCCN(C)Cc3ccccc3OC)oc2c1 | 5.54 | 4.09 | 5.46 | 28.3 | – | 0.55 | – | – | – | – | 47.5 | 36.3 | –
COc1cc(O)c2c(=O)cc(C(=O)NCCCCCCN(C)Cc3ccccc3)oc2c1 | 5.52 | 4.30 | 6.60 | 16.5 | – | 1 | – | – | – | – | 33.5 | 37.1 | –
CCN(CCCCNC(=O)c1cc(=O)c2c(O)cc(OC)cc2o1)Cc1ccccc1 | 5.74 | 3.89 | 5.84 | 71 | – | 0.65 | – | – | – | – | 39 | 34.1 | –
CCN(CCCCNC(=O)c1cc(=O)c2c(O)cc(N(C)C)cc2o1)Cc1ccccc1N(C)C | 5.86 | 3.83 | 5.45 | 107 | – | 1.34 | – | – | – | – | 40.8 | 30.7 | –
CCN(CCCNC(=O)c1cc(=O)c2c(O)cc(OC)cc2o1)Cc1ccccc1 | 5.10 | 4.08 | 4.95 | 10.5 | – | 0.66 | – | – | – | – | 21.1 | 31.5 | –
CCN(CCCCCCNC(=O)c1cc(=O)c2c(O)cc(O)cc2o1)Cc1ccccc1OC | 6.06 | < 3.70 | 5.85 | > 200 | – | 2.25 | – | – | – | – | 39.4 | 28.7 | –
COc1cc(O)c2c(=O)cc(C(=O)NCCCCN(C)Cc3ccccc3)oc2c1 | 5.12 | 3.87 | 5.23 | 17.9 | – | 0.79 | – | – | – | – | 24.4 | 35.3 | –
O=C(O)c1cc(=O)c2c(O)cc(O)cc2o1 | < 3.70 | < 3.70 | < 3.70 | – | – | 2.01 | – | – | – | – | – | – | –
COc1cc(O)c2c(=O)cc(C(=O)NCCCCCCN(C)Cc3ccccc3OC)oc2c1 | 5.80 | 4.36 | 6.24 | 27.2 | – | 1.3 | – | – | – | – | 43.9 | 48.1 | –
COc1ccccc1CN(C)CCCNC(=O)c1cc(=O)c2c(O)cccc2o1 | 5.02 | 3.99 | – | 10.7 | – | 1.64 | – | – | – | – | 50.6 | 23.8 | Not Active
CCN(CCCCCCNC(=O)c1cc(=O)c2c(O)cc(OC)cc2o1)Cc1ccccc1OC | 6.64 | 4.30 | 6.25 | 217 | – | 0.76 | – | – | – | – | 58.2 | 52 | –
C#CCN(CCCCNC(=O)c1cc(=O)c2c(O)cc(OC)cc2o1)Cc1ccccc1OC | 4.87 | 4.24 | 4.14 | 4.2 | – | 0.56 | – | – | – | – | 22.4 | 21.5 | –
